The target in one assay is T1, ERα (Homo sapiens, UniProt P03372).
T1 construct: made in house; host or cells: E. coli
T1 sequence (P03372 311-547 limits assumed): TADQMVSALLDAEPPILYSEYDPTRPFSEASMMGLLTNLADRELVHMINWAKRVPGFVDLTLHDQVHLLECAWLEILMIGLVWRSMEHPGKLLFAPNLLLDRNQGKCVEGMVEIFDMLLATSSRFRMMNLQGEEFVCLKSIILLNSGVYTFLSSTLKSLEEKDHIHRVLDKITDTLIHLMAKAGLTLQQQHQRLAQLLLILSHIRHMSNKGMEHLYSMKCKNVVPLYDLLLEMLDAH
As to the kind of experiment: Competition with [3H]-17β-estradiol for ERα ligand binding domain. The following applies: crude E. coli lysate expressing human ERα LBD (D, E, & F); 2 nM [3H]-17β-estradiol; 5-15 hours at room temperature. The protocol:
(§1) Representative examples of the invention were evaluated for their ability to compete with 17β-estradiol for both ERα and ERβ. This test procedure provides the methodology for one to determine whether a particular compound binds to the estrogen receptor (and is therefore “estrogenic”) and whether there is selectivity for ERα or ERβ. […] 17β-estradiol is included as a standard reference for compalison. The procedure used is briefly described below. A crude lysate of E. coli expressing the estrogen receptor ligand binding domains (D, E, & F) of human ERα or ERβ was prepared. Both receptors and compounds were diluted in 1× Dulbecco's PBS (DPBS) supplemented with 1 mM EDTA. Using a high binding masked microtiter plate, 100 uL of receptor (1 uG/well) was combined with 2 nM [^3H]-17β-estradiol and various concentrations of compound. After between 5 and 15 hours at room temperature, the plates were washed with DPBS/1 mM EDTA and bound radioactivity determined by liquid scintillation counting.

The target of another assay is T2, ERβ (Homo sapiens, UniProt Q92731).
T2 construct: made in house; host or cells: E. coli
T2 sequence (Q92731 264-498 limits assumed): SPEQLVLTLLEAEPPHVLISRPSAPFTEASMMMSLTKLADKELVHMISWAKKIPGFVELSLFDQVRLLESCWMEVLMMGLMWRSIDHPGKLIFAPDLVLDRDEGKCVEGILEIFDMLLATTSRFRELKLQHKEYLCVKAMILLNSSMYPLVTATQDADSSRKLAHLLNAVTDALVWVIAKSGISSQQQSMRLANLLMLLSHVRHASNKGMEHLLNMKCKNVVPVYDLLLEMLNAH
As to the kind of experiment: Competition with [3H]-17β-estradiol for ERβ ligand binding domain. The settings on record: for IC50: crude E. coli lysate expressing human ERβ LBD (D, E, & F), 2 nM [3H]-17β-estradiol, 5-15 hours at room temperature; for α/β: receptor selectivity, ratio ERα IC50 / ERβ IC50. The protocol:
as §1

`Oc1ccc(-c2cc(Cl)c3cc(O)ccc3n2)cc1` [Cpd 5a, 4-Chloro-2-(4-hydroxyphenyl)quinolin-6-ol] gave an IC50 at ERα of 213 nM. On ERβ, the IC50 stood at 4.6 nM and the α/β is reported as 46.
At ERα, `Oc1ccc2nc(-c3ccc(O)c(F)c3)cc(Cl)c2c1` [Cpd 5b, 4-Chloro-2-(3-fluoro-4-hydroxyphenyl)quinolin-6-ol] had a half-maximal inhibitory concentration (IC50) of 246 nM.
As to `Oc1ccc2nc(-c3ccc(O)c(F)c3)cc(Br)c2c1` [Cpd 6b, 4-Bromo-2-(3-fluoro-4-hydroxyphenyl)quinolin-6-ol], the IC50 at ERα came out at 283 nM; at ERβ, 3.4 nM.
Turning to `Oc1ccc2nc(-c3cc(F)c(O)c(F)c3)cc(Br)c2c1` [Cpd 6c, 4-Bromo-2-(3,5-difluoro-4-hydroxyphenyl)quinolin-6-ol], the IC50 at ERα is 976 nM. On ERβ, the IC50 was 42 nM and the α/β was found to be 23.
On the same counts, the results for `CC(=O)Oc1ccc2nc(-c3ccc(OC(C)=O)c(F)c3)cc(Br)c2c1` [Cpd 7, 6-Acetoxy-4-bromo-2-(3-fluoro-4-acetoxyphenyl)quinoline] are above 5000 nM, 198 nM and above 25.
Compound `Oc1ccc(-c2cc(I)c3cc(O)ccc3n2)cc1` [Cpd 8a, 2-(4-Hydroxyphenyl)-4-iodoquinolin-6-ol] displayed an IC50 on ERα of 103 nM. On ERβ, the IC50 stood at 2.4 nM and the α/β came to 43.
Turning to `Oc1ccc2nc(-c3ccc(O)c(F)c3)cc(I)c2c1` [Cpd 8b, 2-(3-Fluoro-4-hydroxyphenyl)-4-iodoquinolin-6-ol], the IC50 was 365 nM at ERα and 5 nM at ERβ. For the same compound, the α/β on ERβ stood at 73.
For the compound `C=Cc1cc(-c2ccc(O)c(F)c2)nc2ccc(O)cc12` [Cpd 11b, 2-(3-Fluoro-4-hydroxyphenyl)-4-vinylquinolin-6-ol], the results for the IC50 at ERα and on ERβ were 458 nM and 37 nM, respectively. Besides, the α/β on ERβ is listed as 12.
For `CCc1cc(-c2ccc(O)cc2)nc2ccc(O)cc12` [Cpd 12a, 4-Ethyl-2-(4-hydroxyphenyl)quinolin-6-ol], in that order: 837 nM, 61 nM and 14.
For `CCc1cc(-c2ccc(O)c(F)c2)nc2ccc(O)cc12` [Cpd 12b, 4-Ethyl-2-(3-fluoro-4-hydroxyphenyl)quinolin-6-ol], in that order: 1030 nM, 40 nM and 26.
For the compound `C[Si](C)(C)C#Cc1cc(-c2ccc(O)cc2)nc2ccc(O)cc12` [Cpd 13a, 2-(4-Hydroxyphenyl)-4-[(trimethylsilyl)ethynyl]quinolin-6-ol], the IC50 at ERα came out at 1510 nM. In addition, at ERβ, the IC50 amounted to 161 nM and the α/β is reported as 9.
For `C[Si](C)(C)C#Cc1cc(-c2ccc(O)c(F)c2)nc2ccc(O)cc12` [Cpd 13b, 2-(3-Fluoro-4-hydroxyphenyl)-4-[(trimethylsilyl)ethynyl]quinolin-6-ol], the concentration for half-maximal inhibition (IC50) on ERα came out at 1690 nM; at ERβ it was 153 nM. Further, the α/β on ERβ worked out at 11.
For `C#Cc1cc(-c2ccc(O)cc2)nc2ccc(O)cc12` [Cpd 14a, 4-Ethynyl-2-(4-hydroxyphenyl)quinolin-6-ol], in that order: 1500 nM, 76 nM and 20.
As to `C#Cc1cc(-c2ccc(O)c(F)c2)nc2ccc(O)cc12` [Cpd 14b, 4-Ethynyl-2-(3-fluoro-4-hydroxyphenyl)quinolin-6-ol], the IC50 at ERα was found to be 3410 nM. On ERβ, the IC50 stood at 32 nM and the α/β is given as 106.
Regarding `Oc1ccc2nc(-c3ccc(O)c(F)c3)cc(C#Cc3ccccc3)c2c1` [Cpd 15, 2-(3-Fluoro-4-hydroxyphenyl)-4-(phenylethynyl)quinolin-6-ol], the half-inhibitory concentration (IC50) turned out to be 12000 nM at ERα and 195 nM at ERβ. For the same compound, the α/β at ERβ amounted to 62.
At ERα, `CC(=O)c1cc(-c2ccc(O)cc2)nc2ccc(O)cc12` [Cpd 16a, 4-Acetyl-2-(4-hydroxyphenyl)quinolin-6-ol] yielded an IC50 of 2940 nM. Besides, at ERβ, the IC50 was found to be 211 nM and the α/β was determined as 14.
On ERα, `CC(=O)c1cc(-c2ccc(O)c(F)c2)nc2ccc(O)cc12` [Cpd 16b, 4-Acetyl-2-(3-fluoro-4-hydroxyphenyl)quinolin-6-ol] yielded an IC50 of 3370 nM.
With `CC(O)c1cc(-c2ccc(O)cc2)nc2ccc(O)cc12` (centres unmarked) [Cpd 17a, 4-(1-Hydroxyethyl)-2-(4-hydroxyphenyl)quinolin-6-ol], the IC50 at ERα and on ERβ was above 5000 nM throughout.
With `Oc1ccc2nc(-c3ccc(O)c(F)c3)cc(-c3nccs3)c2c1` [Cpd 18, 2-(3-Fluoro-4-hydroxyphenyl)-4-thiazol-2-yl-quinolin-6-ol], the IC50 is 2160 nM at ERα and 208 nM on ERβ. Besides, on ERβ, the α/β is recorded as 10.
For `Oc1ccc2nc(-c3ccc(O)c(F)c3)cc(-c3ccccc3)c2c1` [Cpd 20, 2-(3-Fluoro-4-hydroxyphenyl)-4-phenylquinolin-6-ol], the IC50 on ERα was determined as 1380 nM. Further, at ERβ, the IC50 was found to be 128 nM and the α/β came out at 11.
As for `Cc1ccc(-c2cc(-c3ccc(O)c(F)c3)nc3ccc(O)cc23)cc1` [Cpd 21, 2-(3-Fluoro-4-hydroxyphenyl)-4-(4-methylphenyl)quinolin-6-ol], the IC50 on ERα stood at 2920 nM. At ERβ, the IC50 stood at 112 nM and the α/β stood at 26.
As to `Oc1ccc2nc(-c3ccc(O)c(F)c3)cc(-c3ccc(F)cc3)c2c1` [Cpd 22, 2-(3-Fluoro-4-hydroxyphenyl)-4-(4-fluorophenyl)quinolin-6-ol], at ERα, the IC50 was determined as 591 nM. Besides, on ERβ, the concentration for half-maximal inhibition (IC50) was 33 nM and the α/β amounted to 18.
In turn, `Oc1ccc2nc(-c3ccc(O)c(F)c3)cc(-c3ccc(Cl)cc3)c2c1` [Cpd 23, 4-(4-Chlorophenyl)-2-(3-fluoro-4-hydroxyphenyl)quinolin-6-ol] yielded an IC50 on ERα above 1000 nM. Moreover, on ERβ, the 50% inhibitory concentration (IC50) was determined as 146 nM and the α/β is above 6.
The compound `N#Cc1ccc(-c2cc(-c3ccc(O)c(F)c3)nc3ccc(O)cc23)cc1` [Cpd 24, 4-(4-Cyanophenyl)-2-(3-fluoro-4-hydroxyphenyl)quinolin-6-ol] came in with an IC50 on ERα of 1810 nM. For the same compound, at ERβ, the IC50 worked out at 53 nM and the α/β was determined as 34.
For `Oc1ccc2nc(-c3ccc(O)c(F)c3)cc(-c3ccc(C(F)(F)F)cc3)c2c1` [Cpd 25, 2-(3-Fluoro-4-hydroxyphenyl)-4-(4-trifluoromethylphenyl)quinolin-6-ol], the IC50 on ERα and at ERβ was above 5000 nM each time.
For `Oc1ccc2nc(-c3ccc(O)c(F)c3)cc(-c3ccsc3)c2c1` [Cpd 26, 2-(3-Fluoro-4-hydroxyphenyl)-4-thiophen-3-yl-quinolin-6-ol], the IC50 at ERα was 868 nM. Besides, on ERβ, the IC50 is 75 nM and the α/β is 12.
With `Oc1ccc2nc(-c3ccc(O)c(F)c3)cc(-c3ccncc3)c2c1` [Cpd 27, 2-(3-Fluoro-4-hydroxyphenyl)-4-(4-pyridinyl)quinolin-6-ol], the concentration for half-maximal inhibition (IC50) on ERα was above 1000 nM. For the same compound, on ERβ, the IC50 was determined as 78 nM and the α/β is listed as above 12.
For `Oc1ccc2nc(-c3ccc(O)c(F)c3)cc(-c3cncnc3)c2c1` [Cpd 28, 2-(3-Fluoro-4-hydroxyphenyl)-4-(5-pyrimidinyl)quinolin-6-ol], in that order: 3310 nM, 968 nM and 3.
Take `Oc1ccc(-c2ccc3c(Cl)c(O)ccc3n2)cc1` [Cpd 31, 5-Chloro-2-(4-hydroxyphenyl)quinolin-6-ol]: the IC50 at ERα came to 840 nM. In addition, on ERβ, the IC50 was 38 nM and the α/β was 22.
For `Oc1ccc(-c2ccc3c(Br)c(O)ccc3n2)cc1` [Cpd 32, 5-Bromo-2-(4-hydroxyphenyl)quinolin-6-ol], the values for the IC50 on ERα and on ERβ were 1190 nM and 90 nM, respectively. Moreover, the α/β at ERβ was determined as 13.
As for `Oc1ccc(-c2nc3ccc(O)cc3c(Br)c2Cl)cc1` [Cpd 35a, 4-Bromo-3-chloro-2-(4-hydroxyphenyl)quinolin-6-ol], the concentration for half-maximal inhibition (IC50) at ERα turned out to be 78 nM; at ERβ it was 1.25 nM. The α/β at ERβ stood at 62.
Regarding `Oc1ccc2nc(-c3ccc(O)c(F)c3)c(Cl)c(Br)c2c1` [Cpd 35b, 4-Bromo-3-chloro-2-(3-fluoro-4-hydroxyphenyl)quinolin-6-ol], the IC50 at ERα amounted to 90 nM; at ERβ, 3.7 nM. Moreover, the α/β on ERβ worked out at 24.
As to `Oc1ccc(-c2nc3ccc(O)cc3c(-c3ccc(F)cc3)c2Cl)cc1` [Cpd 36, 3-Chloro-4-(4-fluorophenyl)-2-(4-hydroxyphenyl)quinolin-6-ol], the 50% inhibitory concentration (IC50) at ERα is 340 nM. For the same compound, at ERβ, the IC50 is 244 nM and the α/β came to 1.4.
At ERα, `N#Cc1c(Cl)c(-c2ccc(O)c(F)c2)nc2ccc(O)cc12` [Cpd 37, 3-Chloro-4-cyano-2-(3-fluoro-4-hydroxyphenyl)quinolin-6-ol] yielded an IC50 of 318 nM. At ERβ, the IC50 is 26 nM and the α/β is listed as 12.

These data come from US7632845B2, “Phenyl quinolines and their use as estrogenic agents” (Wyeth, priority 2003, dated 2009).
